Entries after “also recorded” stand apart in the source; their conditions may differ.
Tests used:
H23 xenografts = experiment: Xenograft tumor growth in nude mice; format: in vivo, Foxn1nu (nude) mice; settings: H23, DZNep 1 mg/kg/day twice per week for 2 weeks (dosing scheme B)
Experimental: (§1) To determine if the protected and sensitized phenotypes could be observed in vivo, cells were transplanted subcutaneously, tumors allowed to initiate, and mice treated with etoposide and DZNep. 12 days after cell injection, tumor bearing mice were randomized into groups that received either etoposide (20 mg/kg/day) or placebo (corn oil) daily for five days. The cohorts were further subdivided into groups that also received DZNep, either 2 mg/kg/day twice during the first week (dosing scheme A), or 1 mg/kg/day twice during the first two weeks (dosing scheme B).
(§2) Cell lines were dissociated into single cells, counted and resuspended at 1×10^6 cells per 250 μL of 1:1 media/matrigel (BD). 8- to 16-week-old Foxn1nu (nude) mice (Harlan) were injected subcutaneously with 1×10^6 cells in four spots on flanks. Chemo and DZNep were administered from day 12 to day 17 post injections, Etoposide: 20 mg/kg/day i.p. in corn oil once per day for 5 consecutive days, and DZNep 2 mg/kg/day i.p. in corn oil twice per week for 1 week (dosing scheme A) OR 1 mg/kg/day i.p. in corn oil twice per week for 2 weeks (dosing scheme B). Tumor growth was measured every other day by caliper.
as §2, with “2-4” for “four”, “Etoposide” for “Chemo”, “injections; etoposide:” for “injections, Etoposide:”, “week, or” for “week (dosing scheme A) OR”, “weeks.” for “weeks (dosing scheme B).”, “caliper. All mouse experiments were approved by the CHB Animal Care and Use Committee and by the Dana-Farber Cancer Institute Institutional Animal Care and Use Committee, both accredited by AAALAC, and were performed in accordance with relevant institutional and national guidelines and regulations.” for “caliper.”

H157 xenografts = experiment: Xenograft tumor growth in nude mice; format: in vivo, Foxn1nu (nude) mice
Experimental: as §1, §2
as §2, with “2-4” for “four”, “Etoposide” for “Chemo”, “injections; etoposide:” for “injections, Etoposide:”, “week, or” for “week (dosing scheme A) OR”, “weeks.” for “weeks (dosing scheme B).”, “caliper. All mouse experiments were approved by the CHB Animal Care and Use Committee and by the Dana-Farber Cancer Institute Institutional Animal Care and Use Committee, both accredited by AAALAC, and were performed in accordance with relevant institutional and national guidelines and regulations.” for “caliper.”

PC9 = experiment: Etoposide dose response curves in the presence of 5 μM cisplatin; format: cell-based, human; settings: PC9 (sensitized), combination with DZNep
Experimental: (§3) FIG. 25A is a Waterfall plot of cell line growth in 1 μM DZNep for 4 days compared to untreated cells, n=3-5 biological replicates, * indicates p<0.04, ** p<0.007. […] FIG. 25C is a pair of representative etoposide dose response curves performed in the presence of 5 μM cisplatin, the sensitized line PC9 (4.2-fold decrease, p<0.0001) and the protected line H23 (3.4-fold increase, p<0.0001) are shown.
(§4) Cell lines were dissociated, counted and plated at 5000 cells per well in flat bottom opaque tissue culture treated 96 well plates (CytoOne). Edge wells were filled with PBS. The following day, 2× drug diluted in media was added to each well such that the well then contained 100 ul media with 1× drug concentration at the following doses: etoposide; 0, 0.1, 1, 3, 5, 7, 10, 50, 100, 500 μM, cisplatin; 0, 0.1, 1, 5, 10, 30, 70, 100, 500 μM, or doxorubicin; 0, 0.01, 0.1, 0.5, 1, 3, 5, 7, 10, 50 μM. After 4 days, CELLTITER-GLO™ (Promega) was added and luminescence was read on a BioTec plate reader to determine relative cell number in each well. Data were averaged for triplicate or quadruplicate technical replicates and normalized to the untreated wells. Results from three or four independent biological replicate experiments were input into GRAPHPAD PRISM™ software to extrapolate IC50 and s.e.m. of IC50 for a given cell line.

H23 = experiment: as above; format: cell-based, human; settings: H23 (protected), combination with DZNep
Experimental: as §3, §4

human NSCLC lines [1] = experiment: Growth rates over 10 day time-course (Cell Titer Glo), 12 cell lines; format: cell-based; settings: 1 μM DZNep, 10 day time-course
Experimental: FIG. 2A depicts a Western Blot for EZH2 and H3K27me3 performed on whole cell extracts 4 days after indicated treatments, β-actin shown as a loading control. FIG. 2B depicts a graph of the growth rates of matched shGFP and shGFP cells treated with 1 μM DZNep and assayed by Cell Titer Glo at days 3, 5, 7, and 10 post plating at equal densities. Average luminescence ±s.e.m. for 3 replicate wells is shown based on when each shGFP cell line reached logarithmic growth, * indicates p<0.03. FIG. 2C depicts a graph of the response to Etoposide. Cell lines were plated at equal densities and treated a range of etoposide doses with or without 1 μM DZNep. On the 4th day, cell viability was measured using Cell Titer Glo and the percent survival at each dose of etoposide was calculated. Dose response curves were generated for the no DZNep and DZNep treated cells using the GraphPad prism software and IC50s were extrapolated. The fold change±s.e.m. of etoposide IC50 in response to DZNep is plotted, n=4 biological replicates, * indicates p<0.05. Cell lines with mutations in Brg1, EGFR and B-Raf are indicated.

human NSCLC lines [2] = experiment: Cell line growth, 4 days (Cell Titer Glo); format: cell-based; settings: 1 μM DZNep
Experimental: Cell lines were dissociated, counted and plated at 5000 cells per well in flat bottom opaque tissue culture treated 96 well plates (CytoOne). Edge wells were filled with PBS. The following day, 2× drug diluted in media was added to each well such that the well then contained 100 ul media with 1× drug concentration. After 4 days, Cell Titer Glo™ (Promega) was added and luminescence was read on a BioTec plate reader to determine relative cell number in each well. Data were averaged for triplicate or quadruplicate technical replicates, normalized to the untreated wells and input into GraphPad Prism software to extrapolate IC50.
as §4, with “Results from three or four independent biological replicate experiments were input into GRAPHPAD PRISM™ software to extrapolate IC50 and s.e.m. of IC50 for a given cell line.” left out

increase in etoposide IC50 (H23): 3.4 fold
SMILES: Nc1nccc2c1ncn2[C@@H]1C=C(CO)[C@@H](O)[C@H]1O [DZNep, 3-Deazaneplanocin A]
sensitivity of xenografts to DZNep as a single therapy (H23 xenografts): very sensitive; also recorded: sensitive | efficacy of dosing scheme B (H157 xenografts; H157, DZNep 1 mg/kg/day twice per week for 2 weeks): not as effective | tumor burden, DZNep alone vs untreated/vehicle (H157 xenografts; H157 xenografts, DZNep 2 mg/kg/day twice in first week (dosing scheme A)): effective at reducing tumor burden; also recorded: weakly effective | decrease in etoposide IC50 (PC9): 4.2 fold | cell lines with reduced growth rates (human NSCLC lines [1]): 11 out of 12 | average reduction in growth of the cell lines (human NSCLC lines [2]; 4-day time point): 20% | cell lines showing a significant reduction in growth (human NSCLC lines [2]; 4-day time-point, panel of 26 lines): 11 of 26

Reference: patent US9895390B2, “Methods and assays for combination treatment of cancer” (CHILDREN'S MEDICAL CENTER CORPORATION, priority 2012, dated 2018)
